Common to all, as to assay: NCI tumour cell line growth inhibition, 48 h
Test [1] has as its system SN12C renal.
Test [2] has as its system HT29 colon.
Test [3] concerns SK-MEL-28 melanoma.
Test [4] deals with HCT-15 colon.
In test [5] the test system is LOX IMVI melanoma.
For test [6], the system named is HL-60(TB) leukemia.
For test [7], the system named is SK-MEL-5 melanoma.
Test [8] relates to TK-10 renal.

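Test compounds were applied to cells in 96-well plates for 48 hours at 5 doses. Abbreviation: GI50, concentration required for 50% inhibition of growth. TGI marks complete inhibition of growth.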 Some results are limits rather than exact numbers.

Turning to `COc1ncnc2c(-c3ccccc3)cn(COCc3ccccc3)c12`, the GI50 in test [1] was 3.12 µM; in test [2], 3.49 µM; in test [3], 3.33 µM; in test [4], 2.48 µM; in test [5], 3.27 µM; in test [6], 3.22 µM. For the same compound, the results for the GI50 in test [7] and in test [8] were 1.13 µM and 4.05 µM, respectively. The TGI in test [1] is 30 µM; in test [2], more than 100 µM; in test [3], 48.9 µM; in test [4] it was more than 100 µM; in test [5] it was 14.7 µM; in test [6], 18.1 µM. The TGI was 2.34 µM in test [7] and more than 100 µM in test [8].

Consider `C=C(CN1C(=O)CN(C)C1=O)c1ccc(C(=O)Nc2ccccc2N)cc1`, for which the GI50 in test [1] is 14.1 µM; in test [2], 10.9 µM; in test [3], 15.9 µM; in test [4], 40.9 µM; in test [5] it was 18.2 µM; in test [6], 4.93 µM. Also, the GI50 in test [7] was 12.2 µM; in test [8], 3.44 µM. Besides, the TGI in test [1] was 92.4 µM; in test [2], 41.5 µM; in test [3] it was 54.8 µM; in test [4] it was more than 100 µM; in test [5], 69.9 µM; in test [6] it was 61.1 µM. Moreover, the values for the TGI in test [7] and in test [8] were 32.8 µM and 31.5 µM, respectively.

As for `C=CCOc1cc(NC(=S)c2ccoc2C)ccc1OC`, the TGI in test [1], in test [2], in test [3], in test [4], in test [5] and in test [6] was more than 100 µM each time. The same compound returned a TGI in test [7] of more than 100 µM.

With `CN(CCO)CC[C@H](CSc1ccccc1)Nc1ccc(S(=O)(=O)NC(=O)c2ccc(N3CCC([C@@H](O)c4ccccc4-c4ccc(Cl)cc4)CC3)cc2)cc1S(=O)(=O)C(F)(F)F`, the GI50 in test [1] was 2.99 µM; in test [2], 7.45 µM; in test [3], 2.23 µM; in test [4], more than 100 µM; in test [5], 1.43 µM; in test [6], 0.886 µM. For the same compound, the GI50 in test [7] was 1.69 µM; in test [8], 5.2 µM. Besides, the TGI is 11.5 µM in test [1]; 60.6 µM in test [2]; 5.11 µM in test [3]; more than 100 µM in test [4]; 2.97 µM in test [5]; 8.1 µM in test [6]. In addition, the TGI turned out to be 3.25 µM in test [7] and 19.2 µM in test [8].

Consider `O=C1C(Cl)=C(Nc2cccc(Cl)c2)C(=O)N1Cc1ccc(Cl)cc1`, for which the GI50 in test [1] was 1.24 µM; in test [2], 0.758 µM; in test [3] it was 3.12 µM; in test [4], 0.43 µM; in test [5], 0.408 µM; in test [6] it was 1.65 µM. The results for the GI50 in test [7] and in test [8] were 0.66 µM and 3.37 µM, respectively. For the same compound, the TGI in test [1] stood at 5.93 µM; in test [2] it was 31.3 µM; in test [3], 23.5 µM; in test [4], 13 µM; in test [5], 8.49 µM; in test [6], 15.7 µM. For the same compound, the TGI in test [7] amounted to 4.32 µM; in test [8] it was 15.4 µM.

In the case of `C[C@H](NC(=O)[C@@H](C)N)[C@H](Oc1ccc2c(cnn2-c2ccc(F)cc2)c1)c1ccc2c(c1)OCCO2`, the GI50 is 1.29 µM in test [1]; 1.87 µM in test [2]; 1.75 µM in test [3]; 1.98 µM in test [4]; 1.78 µM in test [5]; 2.28 µM in test [6]. Moreover, the GI50 is 1.52 µM in test [7] and 2.22 µM in test [8]. Besides, the TGI is 4.27 µM in test [1]; 3.84 µM in test [2]; 3.4 µM in test [3]; 4.44 µM in test [4]; 3.41 µM in test [5]; 4.94 µM in test [6]. Further, the TGI is 2.94 µM in test [7] and 5.25 µM in test [8].

For `O=C1C(Cl)=C(Nc2cccc(F)c2)C(=O)N1Cc1ccc(Cl)cc1`, the GI50 in test [1] is 0.825 µM; in test [2], 0.911 µM; in test [3], 2.96 µM; in test [4], 0.398 µM; in test [5] it was 0.649 µM; in test [7] it was 0.403 µM. Further, the GI50 in test [8] was 5.7 µM. The TGI in test [1] amounted to 4.81 µM; in test [2] it was 12.9 µM; in test [3] it was 20.6 µM; in test [5], 3.41 µM; in test [7] it was 2.19 µM; in test [8], 19.3 µM.

For `CC1=C(c2ccccc2)C(c2ccccc2)=C(c2ccccc2)C2(c3ccccc3)C(=O)C(C)CN12` (stereo not given), the TGI in test [1], in test [2], in test [3], in test [4], in test [5] and in test [7] was more than 100 µM each time.

Consider `CCN(Cc1cc(Nc2nc(C)cn3c(-c4cn[nH]c4)cnc23)sn1)C(C)(C)CO`, for which the GI50 in test [1] was 0.0301 µM; in test [2], 0.0725 µM; in test [3], 1.41 µM; in test [4] it was 0.0746 µM; in test [5], less than 0.0125 µM; in test [7], 0.222 µM. In test [8], the GI50 was 0.0507 µM. The TGI was 10.5 µM in test [1]; 0.812 µM in test [2]; 14.7 µM in test [3]; 11.4 µM in test [4]; 0.199 µM in test [5]; 2.08 µM in test [7]. For the same compound, the TGI in test [8] stood at 2.24 µM.

For `CN1CCC2(CC1)ONC1=NCCN12`, the GI50 is 15.8 µM in test [1]; 53.7 µM in test [2]; more than 100 µM in test [3]; 24.1 µM in test [4]; 59.8 µM in test [7]. In addition, the TGI in test [1] is 40.2 µM; in test [2], more than 100 µM; in test [3], more than 100 µM; in test [4], more than 100 µM; in test [7], more than 100 µM.
